Tests used:
[1] = target: T1, Lysosomal acid glucosylceramidase (Homo sapiens, UniProt P04062); test: Inhibition of human recombinant beta-glucocerebrosidase assessed as p-nitrophenolate accumulation preincubated for 10 mins before p-nitrophenyl-beta-d-glucopyranoside addition measured after 10 mins by […]
T1 sequence (P04062 whole entry): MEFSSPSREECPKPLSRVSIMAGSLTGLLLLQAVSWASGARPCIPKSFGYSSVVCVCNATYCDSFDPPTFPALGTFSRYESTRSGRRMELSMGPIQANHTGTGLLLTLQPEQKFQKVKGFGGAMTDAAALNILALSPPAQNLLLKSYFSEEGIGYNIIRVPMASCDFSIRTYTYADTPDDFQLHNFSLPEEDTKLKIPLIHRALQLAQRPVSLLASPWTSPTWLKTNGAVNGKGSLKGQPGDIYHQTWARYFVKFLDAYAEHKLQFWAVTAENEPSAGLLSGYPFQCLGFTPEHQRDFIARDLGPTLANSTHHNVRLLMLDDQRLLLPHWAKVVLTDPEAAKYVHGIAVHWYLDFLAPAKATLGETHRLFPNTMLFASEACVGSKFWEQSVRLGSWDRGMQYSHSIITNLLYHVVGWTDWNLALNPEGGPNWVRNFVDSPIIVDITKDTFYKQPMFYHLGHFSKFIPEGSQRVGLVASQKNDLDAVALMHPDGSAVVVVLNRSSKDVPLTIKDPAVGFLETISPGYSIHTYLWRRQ

[2] = target: T2, Lysosomal acid glucosylceramidase (Homo sapiens) (UniProt P04062); test: Inhibition of misfolded beta-glucocerebrosidase in human gaucher cells assessed as increase in enzyme activity at 10 nM; assay type: cell-based
T2 sequence (whole entry): T1 sequence (P04062 whole entry)

[3] = target: T2, Lysosomal acid glucosylceramidase (Homo sapiens); test: Inhibition of human recombinant beta-glucocerebrosidase assessed as p-nitrophenolate accumulation at 1000 uM preincubated for 10 mins before p-nitrophenyl-beta-d-glucopyranoside addition measured after 10 mins by […]

CCCCCC[C@H]1NC[C@@H](O)[C@H](O)[C@H]1O
IC50 [1]: 0.019 µM

CCCCCCCCC[C@H]1NC[C@@H](O)[C@H](O)[C@H]1O
Ki [1]: 0.0022 µM | fold change (FC) [2]: 2

CCC[C@H]1NC[C@@H](O)[C@H](O)[C@H]1O
IC50 [1]: 0.56 µM

CCCCC1N[C@@H](CO)[C@@H](O)[C@H](O)[C@H]1O (single isomer, unassigned)
IC50 [1]: 147 µM

CCCCCC[C@H]1N[C@@H](CO)[C@@H](O)[C@H](O)[C@H]1O
IC50 [1]: 43 µM

OCC(O)C[C@H]1N[C@@H](CO)[C@@H](O)[C@H](O)[C@H]1O (stereo partly drawn)
inhibition [3]: < 50%

CCCC1N[C@@H](CO)[C@@H](O)[C@H](O)[C@H]1O (single isomer, unassigned)
IC50 [1]: 487 µM

— ChEMBL document CHEMBL1156977, “Synthesis of new beta-1-C-alkylated imino-L-iditols: A comparative study of their activity as beta-glucocerebrosidase inhibitors” (Bioorg Med Chem, 2010)
